Reference: patent publication US8779188B2, “Process for the production of L-carnitine tartrate” (Lonza Ltd., priority 2010, dated 2014)

Key:
[1] = cited from earlier work
[2] = Solubility of L-carnitine tartrate in ethanol in relation to the water content of the ethanol (FIG. 1); type: physicochemical; details: ethanol comprising less than 5% water / no or low amounts of water
Description: Without being bound to theory, it is assumed that the strong improvements of the inventive process are associated with the low solubility of L-carnitine tartrate in ethanol comprising no water or only low amounts of water. […] The relationship of L-carnitine tartrate solubility to the water content of ethanol is shown in the scheme of FIG. 1. […] Thereby, high yields are obtained even when avoiding extreme temperatures for heating and cooling.

SMILES | hygroscopicity ([1]; pure carnitine) | solubility in ethanol [2] | stability during storage ([1]; normal air moisture, disclosed in EP 0 434 088 A1) | solubility in ethanol ([2]; L-tartrate) | solubility in ethanol ([2]; listed as carnitine tartrate, L-tartrate)
C[N+](C)(C)CC(O)CC(=O)[O-] [L-carnitine, 3-hydroxy-4-trimethylammonio-butanoate] | highly hygroscopic | almost insoluble |  |  | 
C[N+](C)(C)C[C@H](O)CC(=O)[O-].O=C(O)C(O)C(O)C(=O)O [L-carnitine tartrate, L-carnitine L-tartrate] |  |  | stable | decreased dramatically | very low
